Measurements as given in ChEMBL document CHEMBL1131396, “Structure-activity studies related to ABT-594, a potent nonopioid analgesic agent: effect of pyridine and azetidine ring substitutions on nicotinic acetylcholine receptor binding affinity and analgesic activity in mice” (Bioorg Med Chem Lett, 1998).
pKi: −log10 of the molar value.

Assays:
Mus musculus = species: Mus musculus; assay: Analgesic activity in a mouse hot plate assay; assay type: functional
[1] = target: Neuronal acetylcholine receptor; alpha4/beta2 (Rattus norvegicus, UniProt P09483+P12390); assay: Binding affinity towards Nicotinic acetylcholine receptor alpha4-beta2 in rat brain using [3H]-cytisine as radioligand; assay type: tissue-based
Neuronal acetylcholine receptor; alpha4/beta2, sequence (P09483 whole entry): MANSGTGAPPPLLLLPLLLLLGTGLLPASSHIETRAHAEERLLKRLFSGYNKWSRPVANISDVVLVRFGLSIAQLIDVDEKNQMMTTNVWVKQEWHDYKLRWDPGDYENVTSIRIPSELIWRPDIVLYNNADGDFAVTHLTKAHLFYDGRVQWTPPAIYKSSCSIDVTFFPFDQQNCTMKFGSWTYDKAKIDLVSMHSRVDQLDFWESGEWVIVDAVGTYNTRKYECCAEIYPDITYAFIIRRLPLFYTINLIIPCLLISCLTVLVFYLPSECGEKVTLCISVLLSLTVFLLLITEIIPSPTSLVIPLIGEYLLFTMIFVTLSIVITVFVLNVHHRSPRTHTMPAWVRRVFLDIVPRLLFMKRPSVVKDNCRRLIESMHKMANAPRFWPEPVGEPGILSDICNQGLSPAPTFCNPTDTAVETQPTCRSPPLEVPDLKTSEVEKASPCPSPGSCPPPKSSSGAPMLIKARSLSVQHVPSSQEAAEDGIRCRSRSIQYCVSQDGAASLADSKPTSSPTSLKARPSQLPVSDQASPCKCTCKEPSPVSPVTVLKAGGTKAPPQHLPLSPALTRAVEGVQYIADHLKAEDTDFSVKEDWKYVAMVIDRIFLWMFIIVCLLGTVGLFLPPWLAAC
Neuronal acetylcholine receptor; alpha4/beta2, sequence (P12390 whole entry): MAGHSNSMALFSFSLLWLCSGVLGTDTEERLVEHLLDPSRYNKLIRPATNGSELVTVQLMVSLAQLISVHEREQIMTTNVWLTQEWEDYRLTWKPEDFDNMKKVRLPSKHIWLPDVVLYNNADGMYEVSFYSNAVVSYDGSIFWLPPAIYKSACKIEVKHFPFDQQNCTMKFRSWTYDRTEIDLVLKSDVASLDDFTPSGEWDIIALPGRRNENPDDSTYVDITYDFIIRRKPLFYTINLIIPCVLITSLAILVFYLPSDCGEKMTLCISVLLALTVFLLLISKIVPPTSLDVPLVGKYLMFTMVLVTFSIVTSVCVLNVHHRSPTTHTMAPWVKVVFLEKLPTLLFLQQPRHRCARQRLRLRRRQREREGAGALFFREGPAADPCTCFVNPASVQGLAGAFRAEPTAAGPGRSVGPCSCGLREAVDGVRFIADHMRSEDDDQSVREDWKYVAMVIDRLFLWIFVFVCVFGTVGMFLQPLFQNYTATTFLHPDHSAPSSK

IMR-32 [2] = assay: Maximal response of compound was determined in an in vitro [86Rb+] release assay using IMR-32 cells; assay type: functional, Homo sapiens
IMR-32 [3] = assay: Maximal response of compound at 1 uM concentration in an in vitro [86Rb+] release assay using IMR-32 cells; assay type: functional, Homo sapiens
IMR-32 [4] = assay: Maximal response of compound at concentration 3 uM concentration in an in vitro [86Rb+] release assay using IMR-32 cells; assay type: functional, Homo sapiens
IMR-32 [5] = assay: Maximal response of compound at 10 uM concentration in an in vitro [86Rb+] release assay using IMR-32 cells; assay type: functional, Homo sapiens

Cc1cncc(OC[C@H]2CCN2)c1
MED (Mus musculus): 62 µM/kg
pKi [1]: 9.80

Fc1ccc(OC[C@@H]2CCN2)cn1
MED (Mus musculus): 6.2 µM/kg
pKi [1]: 10.24

CC1(C)CN[C@H]1COc1ccc(Cl)nc1
pKi [1]: 7.43

Clc1ncc(OC[C@@H]2CCN2)cc1Br
MED (Mus musculus): 1.9 µM/kg
pKi [1]: 10.82

Fc1ccc(OC[C@H]2CCN2)cn1
MED (Mus musculus): 1.9 µM/kg
pKi [1]: 10.18

Oc1cncc(OC[C@H]2CCN2)c1
MED (Mus musculus): >62 µM/kg
pKi [1]: 10.06

Clc1cncc(OC[C@H]2CCN2)c1
MED (Mus musculus): 62 µM/kg

Brc1ccc(OC[C@H]2CCN2)cn1
MED (Mus musculus): 0.62 µM/kg

Clc1cncc(OC[C@@H]2CCN2)c1
MED (Mus musculus): >6.2 µM/kg
pKi [1]: 10.38

Fc1ncccc1OC[C@H]1CCN1
MED (Mus musculus): >62 µM/kg

Clc1ccc(OC[C@@H]2CCN2)cn1
MED (Mus musculus): 0.62 µM/kg
Max response (IMR-32 [2]): 166%
pKi [1]: 10.40

COc1ccc(OC[C@H]2CCN2)cn1
MED (Mus musculus): >62 µM/kg

O=[N+]([O-])c1cncc(OC[C@@H]2CCN2)c1
MED (Mus musculus): 62 µM/kg

Cc1cncc(OC[C@@H]2CCN2)c1
MED (Mus musculus): >62 µM/kg
pKi [1]: 10.33

Nc1cncc(OC[C@@H]2CCN2)c1
MED (Mus musculus): >62 µM/kg
pKi [1]: 10.09

CCOc1cncc(OC[C@@H]2CCN2)c1
MED (Mus musculus): 62 µM/kg
pKi [1]: 10.41

Fc1cncc(OC[C@@H]2CCN2)c1
MED (Mus musculus): 6.2 µM/kg
pKi [1]: 10.12

CCc1ccc(OC[C@@H]2CCN2)cn1
MED (Mus musculus): >6.2 µM/kg
pKi [1]: 7.72

Clc1ncc(OC[C@@H]2CCN2)cc1-c1ccccc1
MED (Mus musculus): >6.2 µM/kg
Max response (IMR-32 [3]): 92%
pKi [1]: 10.66

C=Cc1ccc(OC[C@@H]2CCN2)cn1
MED (Mus musculus): >62 µM/kg
pKi [1]: 8.90

Cc1ccc(OC[C@H]2CCN2)cn1
MED (Mus musculus): 6.2 µM/kg
pKi [1]: 10.28

Clc1ccncc1OC[C@H]1CCN1
MED (Mus musculus): >6.2 µM/kg
pKi [1]: 7.92

Brc1ccc(OC[C@@H]2CCN2)cn1
MED (Mus musculus): >6.2 µM/kg
pKi [1]: 10.68

c1cncc(OC[C@@H]2CCN2)c1
MED (Mus musculus): >6.2 µM/kg
Max response (IMR-32 [2]): 113%
pKi [1]: 10.28

c1ccc(-c2cncc(OC[C@@H]3CCN3)c2)cc1
Max response (IMR-32 [4]): 45%
MED (Mus musculus): >62 µM/kg
pKi [1]: 10.34

Clc1ncccc1OC[C@H]1CCN1
MED (Mus musculus): 62 µM/kg

c1ccc(-c2ccc(OC[C@@H]3CCN3)cn2)cc1
MED (Mus musculus): >62 µM/kg
pKi [1]: 8.64

Clc1ncccc1OC[C@@H]1CCN1
MED (Mus musculus): 62 µM/kg

CCCc1cncc(OC[C@@H]2CCN2)c1
MED (Mus musculus): 62 µM/kg
pKi [1]: 10.41

C[C@@H]1CN[C@H]1COc1ccc(Cl)nc1
pKi [1]: 8.12

COc1ccc(OC[C@@H]2CCN2)cn1
MED (Mus musculus): >62 µM/kg
pKi [1]: 8.89

Cc1ncccc1OC[C@@H]1CCN1
MED (Mus musculus): >62 µM/kg
pKi [1]: 8.87

Clc1ccncc1OC[C@@H]1CCN1
MED (Mus musculus): >62 µM/kg
pKi [1]: 6.59

CC(=O)NCc1cncc(OC[C@@H]2CCN2)c1
MED (Mus musculus): >62 µM/kg
pKi [1]: 9.27

N#Cc1ccc(OC[C@@H]2CCN2)cn1
MED (Mus musculus): 62 µM/kg

NCc1cncc(OC[C@@H]2CCN2)c1
MED (Mus musculus): >6.2 µM/kg
pKi [1]: 8.36

Fc1ncccc1OC[C@@H]1CCN1
MED (Mus musculus): 1.9 µM/kg

N#Cc1cncc(OC[C@@H]2CCN2)c1
MED (Mus musculus): >6.2 µM/kg
pKi [1]: 10.60

Brc1cncc(OC[C@@H]2CCN2)c1
MED (Mus musculus): >19 µM/kg
pKi [1]: 9.74

Cc1nc(Cl)ccc1OC[C@@H]1CCN1
MED (Mus musculus): >62 µM/kg
pKi [1]: 8.62

Clc1cc(OC[C@@H]2CCN2)cnc1Cl
MED (Mus musculus): 0.62 µM/kg
pKi [1]: 10.64

CCc1cncc(OC[C@@H]2CCN2)c1
MED (Mus musculus): >62 µM/kg
Max response (IMR-32 [5]): 90%
pKi [1]: 10.00

FC(F)(F)c1cncc(OC[C@@H]2CCN2)c1
MED (Mus musculus): >19 µM/kg
pKi [1]: 9.31

Cc1ccc(OC[C@@H]2CCN2)cn1
MED (Mus musculus): 0.62 µM/kg
pKi [1]: 10.24

Clc1ccc(OC[C@H]2CCN2)cn1 [TEBANICLINE]
MED (Mus musculus): 0.62 µM/kg
pKi [1]: 10.40
